The target in the assay is SSTR2 (Homo sapiens, UniProt P30874). The experiment in a line: SSTR binding affinity by radioligand binding competition assay ([125I]-Tyr11-Somatostatin, membrane extracts). Here is the method:
Macrocyclic peptides in this invention were tested for binding to SSTR protein by a radioligand binding competition assay. For radioligand binding assay, competition binding is performed in duplicate in the wells of a 96 well plate containing binding buffer (HEPES 25 mM pH 7.4, MgCl2 5 mM, CaCl2 1 mM, BSA 0.5%, Saponine 10 μg/ml)), membrane extracts (0.6 μg protein/well), radiotracer ([125I]-Tyr11-Somatostatin, Perkin Elmer NEX389) and test compound. Nonspecific binding is determined by co-incubation with 200-fold excess of cold competitor (SST28). The samples are incubated in a final volume of 0.1 ml for 60 min at room temperature and then filtered over UniFilter-96 GF/C (Revvity 6055690) filter plates. Filters are washed six times with 0.5 ml of ice-cold washing buffer (HEPES 25 mM pH 7.4, MgCl2 5 mM, CaCl2 1 mM) and 50 μl of Microscint 20 (Packard) are added in each well. The plates are incubated 15 min on an orbital shaker and then counted with a TopCount™ for 1 min/well. For IC50 to Ki determination, the Cheng Prusoff equation is used: Ki=IC50/(1+ [tracer]/Kd). [Tracer] is 0.1 nM as mentioned above.

Setting [1] is: radioligand competition, [125I]-Tyr11-Somatostatin 0.1 nM, membrane extracts, Ki from IC50 by Cheng Prusoff, read-out: SSTR2 Ki.
The mark [2] stands for this setting: SSTR2 Ki, radioligand competition, [125I]-Tyr11-Somatostatin 0.1 nM, membrane extracts, Ki from IC50 by Cheng Prusoff.
Where [3] appears, read: read-out: SSTR2 Ki, radioligand competition, [125I]-Tyr11-Somatostatin 0.1 nM, membrane extracts, Ki from IC50 by Cheng Prusoff.

SMILES strings stand for the structures. pKi: −log10 of the molar value. Where two headings read alike, the source gives them in different places. Square brackets hold non-standard residues; d marks the D form. Side chains are listed from the residue outwards. Peptide text beside a SMILES is read from it. * marks the point of attachment. ξ: configuration not given here. DOTA(Lu)NH(CH2)6NHCOCH2 = O=C(CN1CCN2CCN3CCN(CC1)CC(=O)[O][Lu]([O]C(=O)C2)[O]C(=O)C3)NCCCCCCNC(=O)C*; DOTA(Lu) = O=C1CN2CCN3CCN(CC(=O)*)CCN(CC2)CC(=O)[O][Lu]([O]1)[O]C(=O)C3; ξDihydroorotoyl = O=C1CC(C(=O)*)NC(=O)N1; Phe(4-NH2) = Nc1ccc(C[C@H](N)C(=O)O)cc1; 3Pal = N[C@@H](Cc1cccnc1)C(=O)O; 4Pal = N[C@@H](Cc1ccncc1)C(=O)O; NMeOrn = CN[C@@H](CCCN)C(=O)O; NMehCys = CN[C@@H](CCS)C(=O)O; NMeK = CN[C@@H](CCCCN)C(=O)O; NMeC = CN[C@@H](CS)C(=O)O; NMeA = CN[C@@H](C)C(=O)O; Ahx = NCCCCCC(=O)O Some results are limits rather than exact numbers.

Ki data for 20 compounds are collected here from patent US20250222146A1, “Radiopharmaceuticals Targeting Somatostatin Receptor 2 and Uses Thereof” (RayzeBio, Inc., priority 2023, published 2025).

Chain of SSTR2 (P30874 whole entry): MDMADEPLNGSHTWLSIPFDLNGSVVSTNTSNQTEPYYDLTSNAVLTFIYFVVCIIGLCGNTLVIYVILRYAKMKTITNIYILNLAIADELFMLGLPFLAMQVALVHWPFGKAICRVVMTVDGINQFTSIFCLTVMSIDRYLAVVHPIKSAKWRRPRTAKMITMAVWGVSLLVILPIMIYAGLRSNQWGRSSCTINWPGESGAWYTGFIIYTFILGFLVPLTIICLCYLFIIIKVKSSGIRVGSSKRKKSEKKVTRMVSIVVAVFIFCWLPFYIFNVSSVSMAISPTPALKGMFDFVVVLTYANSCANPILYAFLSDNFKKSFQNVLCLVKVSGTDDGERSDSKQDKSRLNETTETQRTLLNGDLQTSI

`C[C@@H](O)[C@@H]1NC(=O)[C@H](CC2CCNCC2)NC(=O)[C@@H]([C@@H](C)c2c[nH]c3ccccc23)NC(=O)[C@H](Cc2ccc(O)cc2)NC(=O)[C@H](CCCCNC(=O)CCC2C(=O)[O][Ga]3[O]C(=O)CN4CCN(CCN2CC4)CC(=O)[O]3)N(C)C(=O)[C@H](Cc2ccccc2)NC1=O` (mixture of isomers) [RB-0006285]: the pKi (commonly the negative decadic logarithm of the Ki, by convention in mol/L) under setting [1] was 8.48 to 9.00.

With `C[C@@H](O)[C@@H]1NC(=O)[C@H](CN2CCNCC2)NC(=O)[C@@H]([C@@H](C)c2c[nH]c3ccccc23)NC(=O)[C@H](Cc2ccc(O)cc2)NC(=O)[C@H](CCCCNC(=O)CCC2C(=O)[O][Ga]3[O]C(=O)CN4CCN(CCN2CC4)CC(=O)[O]3)N(C)C(=O)[C@H](Cc2ccccc2)NC1=O` (mixture of isomers) [RB-0006417], under setting [1], the negative-log Ki (pKi) was 8.48 to 9.00.

Turning to `CC(C)[C@@H]1NC(=O)[C@H](CCCCN)NC(=O)[C@@H](Cc2ccc(NC(N)=O)cc2)NC(=O)[C@H](Cc2ccc(O)cc2)NC(=O)[C@H](C)N(C)C(=O)[C@H](Cc2ccccc2)NC1=O` [RB-0002328] (HELM PEPTIDE1{F.[meA].Y.[NC(=O)Nc1ccc(C[C@@H](N[*:1])C(=O)[*:2])cc1].K.V}$PEPTIDE1,PEPTIDE1,1:R1-6:R2$$$V2.0), the pKi (read-out: SSTR2 Ki) is 8.48 to 9.00.

Consider `CC(=O)NCCCC[C@H]1C(=O)N[C@@H](Cc2ccc(O)cc2)C(=O)N[C@H](Cc2c[nH]c3ccccc23)C(=O)N[C@@H](CCCCN)C(=O)N[C@@H](C(C)C)C(=O)N[C@@H](Cc2ccccc2)C(=O)N1C` [RB-0002329] (HELM PEPTIDE1{F.[CN([C@@H](CCCCN[*:3])C(=O)[*:2])[*:1]].Y.[dW].K.V}|PEPTIDE2{[ac]}$PEPTIDE1,PEPTIDE2,2:R3-1:R2|PEPTIDE1,PEPTIDE1,1:R1-6:R2$$$V2.0), for which the pKi (read-out: SSTR2 Ki) is 8.48 to 9.00.

Take `CC(=O)NCCCC[C@@H]1C(=O)N[C@@H](Cc2ccc(O)cc2)C(=O)N[C@H](Cc2c[nH]c3ccccc23)C(=O)N[C@@H](CCCCN)C(=O)N[C@@H](C(C)C)C(=O)N[C@@H](Cc2ccccc2)C(=O)N1C` [RB-0002593] (HELM PEPTIDE1{F.[CN([C@H](CCCCN[*:3])C(=O)[*:2])[*:1]].Y.[dW].K.V}|PEPTIDE2{[ac]}$PEPTIDE1,PEPTIDE2,2:R3-1:R2|PEPTIDE1,PEPTIDE1,1:R1-6:R2$$$V2.0): the negative logarithm of the Ki (pKi) (read-out: SSTR2 Ki) is 8.00 to 8.48.

For `C[C@@H](O)[C@@H]1NC(=O)[C@H](CCCCN)NC(=O)[C@@H](Cc2c[nH]c3ccccc23)NC(=O)[C@H](Cc2ccc(O)cc2)NC(=O)[C@H](C)N(C)C(=O)[C@H](Cc2ccccc2)NC1=O` [RB-0002594], the pKi (read-out: SSTR2 Ki) was above 9.00.

Turning to `CC(C)[C@@H]1NC(=O)[C@H](CCCCN)NC(=O)[C@@H](Cc2c[nH]c3ccccc23)NC(=O)[C@H](Cc2ccc(O)c(O)c2)NC(=O)[C@H](C)N(C)C(=O)[C@H](Cc2ccccc2)NC1=O` [RB-0002595], under “read-out: SSTR2 Ki”, the negative logarithm of the Ki (pKi) is above 9.00.

As for `CC(C)[C@@H]1NC(=O)[C@H](CCCCN)NC(=O)[C@@H](Cc2c[nH]c3ccccc23)NC(=O)[C@H](C(c2ccccc2)c2ccccc2)NC(=O)[C@H](C)N(C)C(=O)[C@H](Cc2ccccc2)NC1=O` [RB-0002596] (HELM PEPTIDE1{[O=C([C@@H](N[*:1])C(c1ccccc1)c1ccccc1)[*:2]].[dW].K.V.F.[meA]}$PEPTIDE1,PEPTIDE1,1:R1-6:R2$$$V2.0), the pKi (read-out: SSTR2 Ki) is above 9.00.

`CC(C)[C@@H]1NC(=O)[C@H](CCCCN)NC(=O)[C@@H](Cc2c[nH]c3ccccc23)NC(=O)[C@H](Cc2ccc(NC(=O)C3CC(=O)NC(=O)N3)cc2)NC(=O)[C@H](C)N(C)C(=O)[C@H](Cc2ccccc2)NC1=O` (some centres unmarked) [RB-0002597] (cyclo(F[NMeA][Phe(4-NH2)](ξDihydroorotoyl)[dW]KV)): under “read-out: SSTR2 Ki”, the pKi was 8.48 to 9.00.

With `CC(C)[C@@H]1NC(=O)[C@H](CCCCN)NC(=O)[C@@H](Cc2c[nH]c3ccccc23)NC(=O)[C@H](Cc2ccc(O)cc2)NC(=O)[C@H](CCCCNC(=O)CCCCCNC(=O)CN2CCN3CCN4CCN(CC2)CC(=O)[O][Lu]([O]C(=O)C3)[O]C(=O)C4)N(C)C(=O)[C@H](Cc2ccccc2)NC1=O` [RB-0002670] (cyclo(F[NMeK]([Ahx-DOTA(Lu)])Y[dW]KV)), under setting [2], the negative-log Ki (pKi) was above 9.00.

`CC(C)[C@@H]1NC(=O)[C@H](CCCCN)NC(=O)[C@@H](Cc2c[nH]c3ccccc23)NC(=O)[C@H](Cc2ccc(O)cc2)NC(=O)[C@H](CCCNC(=O)CCCCCNC(=O)CN2CCN3CCN4CCN(CC2)CC(=O)[O][Lu]([O]C(=O)C3)[O]C(=O)C4)N(C)C(=O)[C@H](Cc2ccccc2)NC1=O` [RB-0002672] (cyclo(F[NMeOrn]([Ahx-DOTA(Lu)])Y[dW]KV)): the pKi under setting [1] is 8.48 to 9.00.

The compound `CC(C)[C@@H]1NC(=O)[C@H](CCCCN)NC(=O)[C@@H](Cc2c[nH]c3ccccc23)NC(=O)[C@H](Cc2ccc(O)cc2)NC(=O)[C@H](CSCC(=O)NCCCCCCNC(=O)CN2CCN3CCN4CCN(CC2)CC(=O)[O][Lu]([O]C(=O)C3)[O]C(=O)C4)N(C)C(=O)[C@H](Cc2ccccc2)NC1=O` [RB-0002674] (cyclo(F[NMeC](DOTA(Lu)NH(CH2)6NHCOCH2)Y[dW]KV)) gave a pKi under setting [2] of 8.48 to 9.00.

As for `CC(C)[C@@H]1NC(=O)[C@H](CCCCN)NC(=O)[C@@H](Cc2c[nH]c3ccccc23)NC(=O)[C@H](Cc2ccc(O)cc2)NC(=O)[C@H](CCC(=O)NCCCCCCNC(=O)CN2CCN(CC(=O)O)CCN(CC(=O)O)CCN(CC(=O)O)CC2)N(C)C(=O)[C@H](Cc2ccccc2)NC1=O` [RB-0002678] (HELM PEPTIDE1{F.[CN([C@@H](CCC(=O)[*:3])C(=O)[*:2])[*:1]].Y.[dW].K.V}|CHEM1{[O=C(O)CN1CCN(CC(=O)O)CCN(CC(=O)NCCCCCCN[*:1])CCN(CC(=O)O)CC1]}$PEPTIDE1,CHEM1,2:R3-1:R1|PEPTIDE1,PEPTIDE1,1:R1-6:R2$$$V2.0), the pKi under setting [3] was 8.00 to 8.48.

Consider `CCN(C)CC(=O)[O][Lu]1[O]C(=O)CN(C)CCN(CCN(CC)CC(=O)NCCCCCCNC(=O)CCC[C@H]2C(=O)N[C@@H](CC3=CC=C(O)C=C3)C(=O)N[C@H](CC3=CNC4=C3C=CC=C4)C(=O)N[C@@H](CCCCN)C(=O)N[C@@H](C(C)C)C(=O)N[C@@H](CC3=CC=CC=C3)C(=O)N2C)CC(=O)[O]1` [RB-0002680] (HELM PEPTIDE1{F.[CN([C@@H](CCCC(=O)[*:3])C(=O)[*:2])[*:1]].Y.[dW].K.V}|CHEM1{[CCN(C)CC(=O)[O][Lu]1[O]C(=O)CN(C)CCN(CCN(CC)CC(=O)NCCCCCCN[*:1])CC(=O)[O]1]}$PEPTIDE1,CHEM1,2:R3-1:R1|PEPTIDE1,PEPTIDE1,1:R1-6:R2$$$V2.0), for which the negative-log Ki (pKi) under setting [1] is 8.48 to 9.00.

Take `C[C@@H](O)[C@@H]1NC(=O)[C@H](CCCCN)NC(=O)[C@@H](Cc2c[nH]c3ccccc23)NC(=O)[C@H](Cc2cccnc2)NC(=O)[C@H](CSCC(=O)NCCCCCCNC(=O)CN2CCN3CCN4CCN(CC2)CC(=O)[O][Lu]([O]C(=O)C3)[O]C(=O)C4)N(C)C(=O)[C@H](Cc2ccccc2)NC1=O` [RB-0002946] (cyclo([3Pal][dW]KTF[NMeC](DOTA(Lu)NH(CH2)6NHCOCH2))): the pKi under setting [1] is 7.48 to 8.00.

Turning to `C[C@@H](O)[C@@H]1NC(=O)[C@H](CCCCN)NC(=O)[C@@H](Cc2c[nH]c3ccccc23)NC(=O)[C@H](Cc2ccncc2)NC(=O)[C@H](CSCC(=O)NCCCCCCNC(=O)CN2CCN3CCN4CCN(CC2)CC(=O)[O][Lu]([O]C(=O)C3)[O]C(=O)C4)N(C)C(=O)[C@H](Cc2ccccc2)NC1=O` [RB-0002947] (cyclo([4Pal][dW]KTF[NMeC](DOTA(Lu)NH(CH2)6NHCOCH2))), the pKi under setting [1] is 8.00 to 8.48.

`C[C@@H](O)[C@@H]1NC(=O)[C@H](CCCCN)NC(=O)[C@@H](Cc2c[nH]c3ccccc23)NC(=O)[C@H](Cc2cccnc2)NC(=O)[C@H](CCSCC(=O)NCCCCCCNC(=O)CN2CCN3CCN4CCN(CC2)CC(=O)[O][Lu]([O]C(=O)C3)[O]C(=O)C4)N(C)C(=O)[C@H](Cc2ccccc2)NC1=O` [RB-0003000] (cyclo([3Pal][dW]KTF[NMehCys](DOTA(Lu)NH(CH2)6NHCOCH2))): the negative-log Ki (pKi) under setting [1] was above 9.00.

As for `C[C@@H](O)[C@@H]1NC(=O)[C@H](CCCCN)NC(=O)[C@@H](Cc2c[nH]c3ccccc23)NC(=O)[C@H](Cc2ccncc2)NC(=O)[C@H](CCSCC(=O)NCCCCCCNC(=O)CN2CCN3CCN4CCN(CC2)CC(=O)[O][Lu]([O]C(=O)C3)[O]C(=O)C4)N(C)C(=O)[C@H](Cc2ccccc2)NC1=O` [RB-0003002] (cyclo([4Pal][dW]KTF[NMehCys](DOTA(Lu)NH(CH2)6NHCOCH2))), under setting [1], the pKi was above 9.00.

As to `C[C@@H](O)[C@@H]1NC(=O)[C@H](CCCCN)NC(=O)[C@@H](Cc2c[nH]c3ccccc23)NC(=O)[C@H](Cc2ccc(O)cc2)NC(=O)[C@H](CCCCC(=O)NCCCCCCNC(=O)CN2CCN(CC(=O)O)CCN(CC(=O)O)CCN(CC(=O)O)CC2)N(C)C(=O)[C@H](Cc2ccccc2)NC1=O` [RB-0003055], under setting [3], the pKi is above 9.00.

Regarding `CCN(C)CC(=O)[O][Lu]1[O]C(=O)CN(C)CCN(CCN(CC)CC(=O)NCCCCCC(=O)NCCCCC[C@H]2C(=O)N[C@@H](Cc3ccc(O)cc3)C(=O)N[C@H](Cc3c[nH]c4ccccc34)C(=O)N[C@@H](CCCCN)C(=O)N[C@@H]([C@@H](C)O)C(=O)N[C@@H](Cc3ccccc3)C(=O)N2C)CC(=O)[O]1` [RB-0003057], the negative-log Ki (pKi) under setting [1] was above 9.00.
